“And” between values parts separate entries of the source, which are not always exact repeats. Equal values may be shown once. Read-outs that look alike come from different tables or passages of the source.
Assays:
BRD4 [1] = target: T1, BRD4 (Homo sapiens, UniProt O60885); assay: Rescue of CS-JQ1-induced BRD4 degradation by co-treatment; type: cell-based; conditions: CS-JQ1 250 nM; BTZ, MLN7243, MLN4924 1 μM, JQ1 10 μM; MCF7 and MDA-MB-231 cells
U87 = assay: Cell viability, adult glioma U87; type: cell-based
PN84 = assay: Cell viability, adult glioma PN84; type: cell-based
MDA-BR = assay: Cell viability, breast cancer cells MDA-BR; type: cell-based
DIPG VI = assay: Cell viability, pediatric glioma DIPG VI; type: cell-based
MGG23 = assay: Cell viability, adult glioma MGG23; type: cell-based
MCF-7 = assay: Cell viability, breast cancer cells MCF-7; type: cell-based
CT2A (mice) = assay: Cell viability, adult glioma CT2A (mice); type: cell-based
MES236 = assay: Cell viability, adult glioma MES236; type: cell-based
DIPG IV = assay: Cell viability, pediatric glioma DIPG IV; type: cell-based
MGG29 = assay: Cell viability, adult glioma MGG29; type: cell-based
BT474 = assay: Cell viability, breast cancer cells BT474; type: cell-based
MDA = assay: Cell viability, breast cancer cells MDA; type: cell-based
SJGBM2 = assay: Cell viability, pediatric glioma SJGBM2; type: cell-based
GBM8 = assay: Cell viability, adult glioma GBM8; type: cell-based
DIPG XIII = assay: Cell viability, pediatric glioma DIPG XIII; type: cell-based
MES83 = assay: Cell viability, adult glioma MES83; type: cell-based
MGG6 = assay: Cell viability, adult glioma MGG6; type: cell-based
BRD4 [2] = assay: CDDO blockade of CS-JQ1-induced BRD4 degradation; type: cell-based; conditions: MDA and MES83 cells; CDDO 100 nM or 5 μm, celastrol-JQ1 100 nM; CHX 3 μg/ml 1 h, 8 hour treatment
Keap1 BTB domain = Keap1 BTB domain (Homo sapiens, UniProt Q14145); assay: TR-FRET ligand displacement assay with full-length Keap1, BTB domain (CDDO-based tracer); type: binding
Chain of Keap1 BTB domain (Q14145 whole entry, the tested form may be a part): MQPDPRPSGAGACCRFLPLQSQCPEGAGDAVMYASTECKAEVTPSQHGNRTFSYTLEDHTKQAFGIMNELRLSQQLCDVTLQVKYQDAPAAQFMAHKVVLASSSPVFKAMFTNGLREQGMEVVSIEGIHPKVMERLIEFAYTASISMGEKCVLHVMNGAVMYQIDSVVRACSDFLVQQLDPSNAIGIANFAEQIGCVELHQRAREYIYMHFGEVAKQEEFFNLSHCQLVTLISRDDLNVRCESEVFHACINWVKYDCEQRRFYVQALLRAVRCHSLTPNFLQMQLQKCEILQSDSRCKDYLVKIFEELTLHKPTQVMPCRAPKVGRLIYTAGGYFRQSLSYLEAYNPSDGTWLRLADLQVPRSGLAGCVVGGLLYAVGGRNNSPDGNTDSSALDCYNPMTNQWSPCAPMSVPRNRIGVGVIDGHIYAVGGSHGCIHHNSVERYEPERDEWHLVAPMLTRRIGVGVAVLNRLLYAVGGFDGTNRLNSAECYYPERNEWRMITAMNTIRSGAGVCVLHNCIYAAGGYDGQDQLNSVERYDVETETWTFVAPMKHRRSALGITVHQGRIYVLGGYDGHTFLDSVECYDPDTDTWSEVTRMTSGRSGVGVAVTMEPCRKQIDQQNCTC
Protocol: (§1) FIG. 5 contains a table showing apparent equilibrium dissociation constants for CS and CS-JQ1 toward Keap1-Kelch and Keap1-BTB domains.
(§2) Chemical synthesis: FITC-Ahx-[…]-CONH2 (FITC-KL9) peptide tracer was custom synthesized by Genscript (Piscataway, New Jersey). CDDO-FITC fluorescent tracer was prepared as previously described. Column purifications were performed on a Biotage Isolera 4 Purification System equipped with a 200-400 nm diode array detector. For normal phase flash purifications, Sorbtech Purity Flash Cartridges were used (CFC-52300-012-18 and CFC-52500-025-12). For reverse phase flash purifications, Biotage Sfar Bio C18 Duo 300 A, 20 μm cartridges were used (FSBD-0411-001). […] LC/MS data analysis was performed using Waters Masslynx V4.1 SCN 846 software. Proton and carbon nuclear magnetic resonance (1H and 13C NMR spectra) were recorded on a Bruker Avance III 400 spectrometer using Topspin 3.2 software and data were analyzed using MestreNova (version 12.0.1-20560, Mestrelab Research). […]
CS was discovered and validated as a promising new ligand for the redirection of E3 ligase activity. […] Since the binding affinity of CS and CS-JQ1 for BTB was determined in a ligand displacement assay using a CDDO-based tracer, it was reasonable to assume that CDDO-Me would efficiently displace CS-JQ1. […]

BRD4 [3] = target: T1, BRD4; assay: TR-FRET quantification of BRD4 levels after 5 h treatment, MCF7 cells; type: cell-based; conditions: BRD4 degradation
Protocol: (§3) Mammalian cell culture: MCF7 cells (ATCC) were propagated in RPMI-1640 medium supplemented with 10% FBS, 1% pen-strep, and 1% L-glutamine at 37° C. and 5% CO2. MDA-MB-231 cells (ATCC) were propagated in DMEM medium supplemented with 10% FBS, and 1% pen-strep at 37° C. and 5% CO2.
(§4) TR-FRET measurements: unless otherwise noted, experiments were performed in white, 384-well microtiter plates (Corning 3572) in 30 μL assay volume. […] The 490/10 and 520/10 emission channels were acquired with a 50% mirror and a dichroic 510 mirror, respectively, using independently optimized detector gain settings unless specified otherwise. The TR-FRET ratio was taken as the 520/490 nm intensity ratio on a per-well basis.
(§5) Next, MCF7 and MDA-MB-231 cells were treated for 5 h with varying concentrations of CS-JQ1, followed by BRD4 quantification. […] Western blot analysis on the same samples yielded results that were again in excellent agreement (FIG. 1F-G).

Keap1 Kelch domain = Keap1 Kelch domain (Homo sapiens, UniProt Q14145); assay: TR-FRET assay with full-length Keap1, Kelch domain; type: binding
Chain of Keap1 Kelch domain (Q14145 whole entry, the tested form may be a part): as above
Protocol: as §1
as §2, with “Research). Chemical shifts for protons are reported in parts per million (ppm) and are referenced to residual solvent peaks. Data is reported as follows: chemical shift, multiplicity (s=singlet, br s, =broad singlet, d=doublet, t=triplet, q=quartet, p=pentet, m=multiplet), proton coupling constants (J, Hz), and integration.” for “Research).”

DIPG 50 = assay: Cell viability, pediatric glioma DIPG 50; type: cell-based
M005 (mice) = assay: Cell viability, adult glioma M005 (mice); type: cell-based; conditions: Mus musculus
XFM (mice) = assay: Cell viability, pediatric glioma XFM (mice); type: cell-based; conditions: Mus musculus
[4] = test system: full-length Keap1 and BRD4(BD1) and BRD4(BD2); assay: CS-JQ1-induced ternary complex formation; type: binding; conditions: wildtype full-length Keap1, isolated BRD4 (BD1) and BRD4 (BD2)
BRD4 [5] = target: T1, BRD4; assay: TR-FRET quantification of BRD4 levels after 5 h treatment, MDA-MB-231 cells; type: cell-based; conditions: BRD4 degradation
Protocol: as §3, §4, §5

PHC (mice) = assay: Cell viability, pediatric glioma PHC (mice); type: cell-based; conditions: Mus musculus
PKC (mice) = assay: Cell viability, pediatric glioma PKC (mice); type: cell-based; conditions: Mus musculus
BRD4 [6] = assay: TR-FRET ligand displacement, target engagement with BRD4; type: binding; conditions: recombinant BRD4(BD1), BRD4(BD2), endogenous BRD4 in MCF7 cell extracts
[7] = cited from earlier work

## CC(C)C[C@H](NC(=O)[C@H](Cc1ccccc1)NC(=O)c1cnccn1)B(O)O [BTZ]
BRD4 [1]
  Rescue of CS-JQ1-mediated BRD4 degradation by co-treatment: substantially rescued

## Cc1sc2c(c1C)C(c1ccc(Cl)cc1)=NC(CC(=O)NCCCOCCOCCOCCCNC(=O)[C@]13CCC(C)(C)C[C@H]1[C@H]1C(=O)C=C4[C@@]5(C)C=C(C#N)C(=O)C(C)(C)[C@@H]5CC[C@@]4(C)[C@]1(C)CC3)c1nnc(C)n1-2 (stereo partly shown) [CDDO-JQ1]
U87
  IC50: 746 nM
PN84
  IC50: 139 nM
MDA-BR
  IC50: > 10000 nM
DIPG VI
  IC50: 277 nM
MGG23
  IC50: 1850 nM
MCF-7
  IC50: 6600 nM
CT2A (mice)
  IC50: 747 nM
MES236
  IC50: 404 nM
DIPG IV
  IC50: 894 nM
MGG29
  IC50: 360 nM
BT474
  IC50: 1680 nM
MDA
  IC50: 748 nM
SJGBM2
  IC50: 635 nM
GBM8
  IC50: 124 nM
DIPG XIII
  IC50: 694 nM
MES83
  IC50: 1000 nM
MGG6
  IC50: 357 nM

## CC1(C)CC[C@]2(C(=O)O)CC[C@]3(C)[C@H](C(=O)C=C4[C@@]5(C)C=C(C#N)C(=O)C(C)(C)[C@@H]5CC[C@]43C)[C@@H]2C1 [CDDO]
U87
  IC50: 3700 nM
PN84
  IC50: 278 nM
MDA-BR
  IC50: > 10000 nM
DIPG VI
  IC50: 1330 nM
MGG23
  IC50: 2570 nM
BRD4 [2]
  Blockade of CS-JQ1-induced BRD4 degradation by CDDO pre-treatment: blocks partially
MCF-7
  IC50: > 10000 nM
CT2A (mice)
  IC50: 2120 nM
MES236
  IC50: 1280 nM
DIPG IV
  IC50: 1360 nM
MGG29
  IC50: 828 nM
BT474
  IC50: 4840 nM
MDA
  IC50: 1220 nM
SJGBM2
  IC50: 2370 nM
GBM8
  IC50: 578 nM
DIPG XIII
  IC50: 1410 nM
MES83
  IC50: 1350 nM
MGG6
  IC50: 964 nM

## CC1=C(O)C(=O)C=C2C1=CC=C1[C@@]2(C)CC[C@@]2(C)[C@@H]3C[C@](C)(C(=O)NCCCOCCOCCOCCCNC(=O)CC4N=C(c5ccc(Cl)cc5)c5c(sc(C)c5C)-n5c(C)nnc54)CC[C@]3(C)CC[C@]12C (stereo partly drawn) [CS-JQ1, (2R,4aS,6aS,12bR,14aS,14bR)—N-(1-(4-(4-chlorophenyl)-2,3,9-trimethyl-6H-thieno[3,2-f][1,2,4]triazolo[4,3-a][1,4]diazepin-6-yl)-2-oxo-7,10,13-trioxa-3-azahexadecan-16-yl)-10-hydroxy-2,4a,6a,9,12b,14a-hexamethyl-11-oxo-1,2,3,4,4a,5,6,6a,11,12b,13,14,14a,14b-tetradecahydropicene-2-carboxamide]
Keap1 BTB domain
  Affinity for Keap1 BTB domain: slightly improved affinity for the BTB domain
U87; Homo sapiens, U-87 MG
  IC50: 266 nM
PN84
  IC50: 79.7 nM
PN84; listed as Celastrol-JQ1
  IC50: 125 nM
MDA-BR
  IC50: 213 nM
BRD4 [3]
  Emax: 21%
  Emax,5h,MCF7: 21%
BRD4 [3]; n=2
  DC50: 29 ± 14 nM
DIPG VI
  IC50: 83.1 nM
MGG23
  IC50: 447 nM
MCF-7; Homo sapiens, MCF7
  IC50: 409 nM
CT2A (mice); Mus musculus
  IC50: 142 nM
MES236
  IC50: 190 nM
Keap1 Kelch domain
  Binding to Keap1 Kelch domain: lost the ability to bind the Keap1 Kelch domain
DIPG IV
  IC50: 819 nM
MGG29
  IC50: 90.4 nM
DIPG 50
  IC50: 298 nM
BT474; Homo sapiens, BT-474
  IC50: 60.9 nM
MDA
  IC50: 119 nM
SJGBM2
  IC50: 263 nM
M005 (mice)
  IC50: 23.6 nM
GBM8
  IC50: 63.1 nM
XFM (mice)
  IC50: 38.2 nM
DIPG XIII
  IC50: 39 nM
DIPG XIII; listed as Celastrol-JQ1
  IC50: 46.5 nM
MES83
  IC50: 328 nM
[4]
  Ternary complex formation between Keap1 and BRD4 domains: able to induce ternary complex formation
BRD4 [5]
  Emax: 12%
  Emax,5h,MDA-MB-231: 12%
BRD4 [5]; n=2
  DC50: 16 ± 2 nM
MGG6
  IC50: 99.3 nM
PHC (mice)
  IC50: 8.48 nM
PKC (mice)
  IC50: 103 nM
BRD4 [6]
  Binding to BRD4: did not impair binding to BRD4

## CC1=C(O)C(=O)C=C2C1=CC=C1[C@@]2(C)CC[C@@]2(C)[C@@H]3C[C@](C)(C(=O)O)CC[C@]3(C)CC[C@]12C [Celastrol, (9β,13α,14β,20α)-3-hydroxy-9,13-dimethyl-2-oxo-24,25,26-Trinoroleana-1(10),3,5,7-tetraen-29-oic acid]
Keap1 BTB domain
  Affinity for Keap1 BTB domain: low micromolar affinity
U87; Homo sapiens, U-87 MG
  IC50: 913 nM
PN84
  IC50: 381 nM
MDA-BR
  IC50: 1710 nM
DIPG VI
  IC50: 1360 nM
MGG23
  IC50: 1810 nM
MCF-7; Homo sapiens, MCF7
  IC50: 3320 nM
CT2A (mice); Mus musculus
  IC50: 605 nM
MES236
  IC50: 1270 nM
Keap1 Kelch domain
  Binding to Keap1 Kelch domain: low micromolar affinity
DIPG IV
  IC50: 2960 nM
[7]
  pKa: about 4.8
MGG29
  IC50: 1100 nM
DIPG 50
  IC50: 1600 nM
BT474; Homo sapiens, BT-474
  IC50: 511 nM
MDA
  IC50: 1200 nM
SJGBM2
  IC50: 1190 nM
M005 (mice)
  IC50: 874 nM
GBM8
  IC50: 715 nM
XFM (mice)
  IC50: 276 nM
DIPG XIII
  IC50: 1910 nM and 1800 nM
MES83
  IC50: 1160 nM
MGG6
  IC50: 1230 nM
PHC (mice)
  IC50: 310 nM
PKC (mice)
  IC50: 170 nM

## NS(=O)(=O)OC[C@@H]1C[C@@H](n2ccc3c(N[C@H]4CCc5ccccc54)ncnc32)C[C@@H]1O [MLN4924]
BRD4 [1]
  Rescue of CS-JQ1-mediated BRD4 degradation by co-treatment: substantially rescued

## NS(=O)(=O)OC[C@H]1C[C@@H](Nc2ccnc3cc(-c4cccc(SC(F)(F)F)c4)nn23)[C@H](O)[C@@H]1O [MLN7243]
BRD4 [1]
  Rescue of CS-JQ1-mediated BRD4 degradation by co-treatment: substantially rescued

— patent US20250034202A1 (The General Hospital Corporation, priority 2021, published 2025)
